# Measured values taken from ChEMBL document CHEMBL6092176, “Discovery of pyrazolo[1,5-a]pyrimidine derivatives targeting TLR4-TLR4∗ homodimerization via AI-powered next-generation screening” (Eur J Med Chem, 2024).
# Values joined by “and” are separate entries in the source; they are usually repeats but may differ in a detail not shown here. Identical values can stand only once. Active and inactive are the calls of the source. The calls are words filed in the database; no cut-off is given here.
# Assays:
# [1] = Cytotoxicity against HEK-Blue hTLR4 cells incubated for 24 hrs by CCK8 assay; assay type: toxicity, cell-based; conditions: human
# [2] = molecular target: T1, Toll-like receptor 4 (Homo sapiens, UniProt O00206); experiment: Inhibition of human TLR4 in LPS-stimulated HEK-Blue hTLR4 cells assessed as reduction in SEAP activity incubated for 24 hrs by microplate reader assay; assay type: cell-based
# [3] = system: Mus musculus; experiment: Antiinflammatory activity in LPS-induced C57BL/6 mouse sepsis model assessed as reduction in TNFalpha mRNA expression at 5 mg/kg, ip preadministered with compound for 1 hr followed by LPS stimulation and measured after 15 hrs by RT-qPCR analysis; assay type: functional, organism-based; conditions: time 16.0 hrs
# [4] = Tmax in C57BL/6 mouse at 10 mg/kg, ip measured upto 24 hrs; assay type: ADME, organism-based; conditions: in vivo
# [5] = MRT(0 to t) in C57BL/6 mouse at 10 mg/kg, ip measured upto 24 hrs; assay type: ADME, organism-based; conditions: in vivo
# [6] = Apparent volume of distribution in C57BL/6 mouse at 10 mg/kg, ip measured upto 24 hrs; assay type: ADME, organism-based; conditions: in vivo
# [7] = Half-life in C57BL/6 mouse at 10 mg/kg, ip measured upto 24 hrs; assay type: ADME, organism-based; conditions: in vivo
# [8] = Clearance in C57BL/6 mouse at 10 mg/kg, ip measured upto 24 hrs; assay type: ADME, organism-based; conditions: in vivo
# [9] = system: Mus musculus; experiment: Antiinflammatory activity in LPS-induced C57BL/6 mouse sepsis model assessed as survival rate at 10 mg/kg, ip preadministered with compound for 1 hr followed by LPS stimulation and measured after 24 hrs; assay type: functional; conditions: time 25 hrs
# [10] = Cmax in C57BL/6 mouse at 10 mg/kg, ip measured upto 24 hrs; assay type: ADME, organism-based; conditions: in vivo
# [11] = AUC(0 to t) in C57BL/6 mouse at 10 mg/kg, ip measured upto 24 hrs; assay type: ADME, organism-based; conditions: in vivo
# [12] = Inhibition of TLR4 to MD2 (unknown origin) protein-protein interaction; parameters: species or system Homo sapiens
# [13] = molecular target: T1, Toll-like receptor 4; experiment: Inhibition of TLR4 (unknown origin) homodimerization
# T1 sequence (O00206 whole entry): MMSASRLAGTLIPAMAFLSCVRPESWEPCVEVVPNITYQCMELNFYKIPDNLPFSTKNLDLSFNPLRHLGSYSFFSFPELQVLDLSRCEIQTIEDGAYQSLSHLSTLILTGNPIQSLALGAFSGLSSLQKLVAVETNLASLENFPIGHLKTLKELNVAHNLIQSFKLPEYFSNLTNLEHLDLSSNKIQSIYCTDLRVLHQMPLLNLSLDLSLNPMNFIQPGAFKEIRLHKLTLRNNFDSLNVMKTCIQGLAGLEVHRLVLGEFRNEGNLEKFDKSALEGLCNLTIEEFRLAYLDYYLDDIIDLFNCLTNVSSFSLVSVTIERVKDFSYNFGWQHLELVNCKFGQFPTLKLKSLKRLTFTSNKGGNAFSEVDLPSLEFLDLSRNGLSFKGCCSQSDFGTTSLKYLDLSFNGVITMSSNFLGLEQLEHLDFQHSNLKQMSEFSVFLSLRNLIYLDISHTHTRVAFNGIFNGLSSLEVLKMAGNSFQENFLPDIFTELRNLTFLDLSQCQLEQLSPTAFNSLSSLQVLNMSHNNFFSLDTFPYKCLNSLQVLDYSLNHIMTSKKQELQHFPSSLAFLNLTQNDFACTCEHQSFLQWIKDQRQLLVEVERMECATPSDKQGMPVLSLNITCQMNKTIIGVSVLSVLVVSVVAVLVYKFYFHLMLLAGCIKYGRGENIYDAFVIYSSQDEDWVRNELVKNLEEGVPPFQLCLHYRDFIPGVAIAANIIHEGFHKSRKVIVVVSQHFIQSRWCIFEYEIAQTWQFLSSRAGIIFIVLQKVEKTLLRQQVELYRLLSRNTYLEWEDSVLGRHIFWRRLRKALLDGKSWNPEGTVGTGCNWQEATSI
Compound,IC50 at 24 h [1] [µM],IC50 [2],other results
O=C(c1cnn2c(C(F)F)cc(-c3ccc(Cl)cc3)nc12)N1CCC2(CC1)OCCO2,> 50,4.94 µM,–
FC(F)c1cc(-c2ccc(Cl)cc2)nc2c(C(=S)N3C[C@H]4CCCC[C@H]4C3)cnn12,> 50,> 50 µM,–
O=C(c1cnn2c(C(F)F)cc(C34CC5CC(CC(C5)C3)C4)nc12)N1C[C@H]2CCCC[C@H]2C1,> 50,> 50 µM,–
COc1ccc(-c2cc(C(F)F)n3ncc(C(=O)N4CCC5(CC4)OCCO5)c3n2)cc1OC,> 50,> 50 µM,–
O=C(c1cnn2c(C(F)F)cc(-c3ccc(F)cc3)nc12)N1CCC2(CC1)OCCO2,> 50,> 50 µM,–
CC(C)(C)OC(=O)NC1CCN(C(=O)c2cnn3c(C(F)F)cc(-c4ccc(Cl)cc4)nc23)CC1,45.9,24 µM,–
O=C(c1cnn2c1NC(c1ccc(Cl)cc1)CC2C(F)F)N1C[C@H]2CCCC[C@H]2C1 (stereo partly drawn),> 50,> 50 µM,–
C[C@@H]1C[C@H]2[C@@H]3CCC4=CC(=O)C=C[C@]4(C)[C@@]3(F)[C@@H](O)C[C@]2(C)[C@@]1(O)C(=O)CO,–,–,Activity [3]: inactive
O=C(c1cnn2c(C(F)F)cc(-c3ccc(Cl)cc3)nc12)N1C[C@H]2CCCC[C@H]2C1,–,–,Tmax [4]: 0.333 h; MRT last at 24 h [5]: 2.55 h; Vz [6]: 25.4 L/kg; t1/2 [7]: 2.74 h; CL [8]: 6.42 L/h/kg; survival at 10 mg/kg [9]: 60%; Cmax [10]: 0.76 µg/mL; AUCt [11]: 1.56 µg·h/mL
O=C(c1cnn2c(O)cc(-c3ccc(Cl)cc3)nc12)N1CCC2(CC1)OCCO2,> 50,> 50 µM,–
CN1CCN(C(=O)c2cnn3c(C(F)F)cc(-c4ccc(Cl)cc4)nc23)CC1,> 50,30.6 µM,–
O=C(Oc1ccnc2c(Br)cccc12)c1cnn2c(C(F)F)cc(-c3ccc(Cl)cc3)nc12,> 50,15.5 µM,–
CC(=O)N1CCN(C(=O)c2cnn3c(C(F)F)cc(-c4ccc(Cl)cc4)nc23)CC1,> 50,> 50 µM,–
O=C(c1cnn2c(C(F)F)cc(-c3ccc(Cl)cn3)nc12)N1C[C@H]2CCCC[C@H]2C1,> 50,11.8 µM,–
O=C(c1cnn2c(C(F)F)cc(-c3ccc(Cl)cc3)nc12)N1CCSCC1,> 50,> 50 µM,–
Cc1nn(Cc2ccccc2Cl)c(C)c1CN(C)CC(O)COc1ccc(Cl)cc1 (stereo not drawn),–,–,IC50 [12]: 18.7 µM
NC1CCN(C(=O)c2cnn3c(C(F)F)cc(-c4ccc(Cl)cc4)nc23)CC1,> 50,> 50 µM,–
FC(F)c1cc(-c2ccc(Cl)cc2)nc2cc(C(=S)N3C[C@H]4CCCC[C@H]4C3)nn12,> 50,> 50 µM,–
Cc1ccc(-c2cc(C(F)(F)F)n3ncc(C(=O)N4CCC5(CC4)OCCO5)c3n2)cc1,> 50,> 50 µM,–
O=C(c1cnn2c(C(F)(F)F)cc(-c3ccc(Cl)cc3)nc12)N1CCC2(CC1)OCCO2,> 50,> 50 µM,–
O=C(c1cnn2c(C(F)F)cc(-c3ccc(Br)cc3)nc12)N1CCC2(CC1)OCCO2,> 50,> 50 µM,–
Cc1ccc(-c2cc(C(F)F)n3ncc(C(=O)N4CCC5(CC4)OCCO5)c3n2)cc1,> 50,14 µM,IC50 [13]: 14 µM
CC(C)(C)OC(=O)N1CCN(C(=O)c2cnn3c(C(F)F)cc(-c4ccc(Cl)cc4)nc23)CC1,> 50,> 50 µM,–
O=C(Nc1ccc(S(=O)(=O)NC2CC2)cc1)c1cnn2c(C(F)F)cc(-c3ccc(Cl)cc3)nc12,> 50,10.5 µM,–
O=C(c1cnn2c(C(F)F)cc(-c3ccc(Cl)cc3)nc12)N1CCC2(CCCCC2)CC1,> 50,> 50 µM,–
CCOC(=O)C1=CCCC[C@H]1S(=O)(=O)Nc1ccc(F)cc1Cl [RESATORVID],> 50,0.047 µM and 0.06 µM,–
CCOc1ccc(OCC(O)CN(C)Cc2c(C)nn(Cc3ccccc3Cl)c2C)cc1 (stereo not drawn),–,–,IC50 [12]: 48.1 µM
